In ChEMBL document CHEMBL5113510, “Protein Lysine Methyltransferase SMYD2: A Promising Small Molecule Target for Cancer Therapy” (J Med Chem, 2022):
pIC50: −log10 of the molar value. Blank lines part the entries; values can stand above or below the compound they belong to.

Columns and labels:
[1] = Antitumor activity against human HCC cells assessed as inhibition of cell proliferation incubated for 3 to 7 days by CellTiter-Glo assay; format: functional, cell-based
KYSE-150 cell line = assay: Antitumor activity against human KYSE-150 cells assessed as inhibition of cell proliferation incubated for 3 to 7 days by CellTiter-Glo assay; format: functional, cell-based
KYSE-270 = assay: Antitumor activity against human KYSE-270 cells assessed as inhibition of cell proliferation incubated for 3 to 7 days by CellTiter-Glo assay; format: functional, cell-based
[2] = Antitumor activity against human BC cells assessed as inhibition of cell proliferation incubated for 3 to 7 days by CellTiter-Glo assay; format: functional, cell-based
[3] = biological target: T1, N-lysine methyltransferase SMYD2 (Homo sapiens, UniProt Q9NRG4); assay: Inhibition of FLAG-tagged SMYD2 (unknown origin) expressed in human U2OS cells mediated intracellular p53 methylation incubated for 24 hrs using p53 as substrate by immunofluorescence analysis; format: cell-based
[4] = biological target: T1, N-lysine methyltransferase SMYD2; assay: Inhibition of human SMYD2 overexpressing human KYSE-150 cells assessed as SMYD2 assessed as reduction in BTF3 monomethylation by Western blot analysis; format: cell-based, KYSE-150 cell line

T1 sequence (Q9NRG4 whole entry): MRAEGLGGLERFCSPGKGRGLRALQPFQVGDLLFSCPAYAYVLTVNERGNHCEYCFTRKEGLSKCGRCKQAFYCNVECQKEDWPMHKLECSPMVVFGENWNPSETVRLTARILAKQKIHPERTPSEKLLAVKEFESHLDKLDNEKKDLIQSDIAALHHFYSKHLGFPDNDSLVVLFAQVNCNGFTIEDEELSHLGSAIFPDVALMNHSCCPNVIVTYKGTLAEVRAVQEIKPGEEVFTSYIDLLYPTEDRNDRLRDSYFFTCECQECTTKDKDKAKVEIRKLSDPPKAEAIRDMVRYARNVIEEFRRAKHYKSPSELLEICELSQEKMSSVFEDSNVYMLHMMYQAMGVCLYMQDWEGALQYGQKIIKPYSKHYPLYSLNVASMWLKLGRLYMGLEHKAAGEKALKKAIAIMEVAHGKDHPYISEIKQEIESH

Compound: Cc1cn(CCN2CCN(c3ccccc3-c3cc(C#N)cc(C(=O)NCCCN4CCCC4)c3)CC2)c2ccccc12
pIC50 [1]: 5.82
pIC50 (KYSE-150 cell line): 5.82
pIC50 (KYSE-270): 5.82
pIC50 [2]: 5.82

pIC50 [3]: > 4.00
Compound: O=C1COc2c(CCNCCN(C(=O)CCNCCc3ccc(Cl)c(Cl)c3)C3CCCCC3)ccc(O)c2N1

pIC50 [4]: 8.54
Compound: O=C(NC1CN(Cc2cnn(Cc3ccc(Cl)cc3)c2)C1)c1cn(C2CC2)nn1
